Data on 14 molecules can be found in ChEMBL document CHEMBL5291721, “A preclinical secondary pharmacology resource illuminates target-adverse drug reaction associations of marketed drugs” (Nat Commun, 2023).

The target in assay [1] is T1, Adenosine receptor A3 (Homo sapiens, UniProt P0DMS8).
T1 sequence (P0DMS8 whole entry): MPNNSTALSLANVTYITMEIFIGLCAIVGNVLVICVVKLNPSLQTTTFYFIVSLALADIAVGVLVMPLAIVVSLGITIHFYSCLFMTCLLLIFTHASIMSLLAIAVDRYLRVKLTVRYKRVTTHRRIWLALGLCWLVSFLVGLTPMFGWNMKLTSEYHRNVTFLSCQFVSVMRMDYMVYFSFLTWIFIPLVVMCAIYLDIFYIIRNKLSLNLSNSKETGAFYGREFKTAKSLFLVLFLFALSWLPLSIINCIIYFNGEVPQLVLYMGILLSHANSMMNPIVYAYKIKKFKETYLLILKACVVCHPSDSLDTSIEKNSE

The target in assay [2] is T2, Cholecystokinin receptor type A (Homo sapiens, UniProt P32238).
T2 sequence (P32238 whole entry): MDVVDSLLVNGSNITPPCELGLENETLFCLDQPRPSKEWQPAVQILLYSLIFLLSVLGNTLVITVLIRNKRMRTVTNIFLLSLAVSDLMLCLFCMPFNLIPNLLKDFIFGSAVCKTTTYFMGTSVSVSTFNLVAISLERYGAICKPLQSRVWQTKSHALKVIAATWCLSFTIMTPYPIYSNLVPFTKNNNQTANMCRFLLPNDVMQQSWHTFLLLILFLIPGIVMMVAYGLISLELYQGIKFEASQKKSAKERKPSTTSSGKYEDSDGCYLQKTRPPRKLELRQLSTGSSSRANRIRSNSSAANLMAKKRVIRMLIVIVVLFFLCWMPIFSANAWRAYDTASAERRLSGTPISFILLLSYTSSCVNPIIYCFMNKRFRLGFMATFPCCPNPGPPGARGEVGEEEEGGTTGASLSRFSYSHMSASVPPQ

For assay [3], the target named is Muscarinic acetylcholine receptor M3 (Homo sapiens, UniProt P20309).
Chain of Muscarinic acetylcholine receptor M3 (P20309 whole entry): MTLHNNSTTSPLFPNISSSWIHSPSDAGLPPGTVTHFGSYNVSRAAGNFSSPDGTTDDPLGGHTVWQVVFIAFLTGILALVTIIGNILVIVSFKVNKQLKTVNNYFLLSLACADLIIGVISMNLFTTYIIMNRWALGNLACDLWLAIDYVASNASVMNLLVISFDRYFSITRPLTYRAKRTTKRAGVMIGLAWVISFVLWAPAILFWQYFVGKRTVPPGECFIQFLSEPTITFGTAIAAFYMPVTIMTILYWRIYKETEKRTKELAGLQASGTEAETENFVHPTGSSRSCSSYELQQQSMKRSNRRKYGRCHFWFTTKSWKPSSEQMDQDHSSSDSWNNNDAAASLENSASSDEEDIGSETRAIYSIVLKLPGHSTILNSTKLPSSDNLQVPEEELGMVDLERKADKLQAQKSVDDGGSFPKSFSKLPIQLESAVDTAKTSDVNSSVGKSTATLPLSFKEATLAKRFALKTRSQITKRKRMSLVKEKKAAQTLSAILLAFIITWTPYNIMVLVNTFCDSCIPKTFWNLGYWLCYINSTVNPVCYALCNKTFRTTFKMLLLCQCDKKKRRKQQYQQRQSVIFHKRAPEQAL
The target of assay [4] is T3, Estrogen receptor (Homo sapiens, UniProt P03372).
T3 sequence (P03372 whole entry): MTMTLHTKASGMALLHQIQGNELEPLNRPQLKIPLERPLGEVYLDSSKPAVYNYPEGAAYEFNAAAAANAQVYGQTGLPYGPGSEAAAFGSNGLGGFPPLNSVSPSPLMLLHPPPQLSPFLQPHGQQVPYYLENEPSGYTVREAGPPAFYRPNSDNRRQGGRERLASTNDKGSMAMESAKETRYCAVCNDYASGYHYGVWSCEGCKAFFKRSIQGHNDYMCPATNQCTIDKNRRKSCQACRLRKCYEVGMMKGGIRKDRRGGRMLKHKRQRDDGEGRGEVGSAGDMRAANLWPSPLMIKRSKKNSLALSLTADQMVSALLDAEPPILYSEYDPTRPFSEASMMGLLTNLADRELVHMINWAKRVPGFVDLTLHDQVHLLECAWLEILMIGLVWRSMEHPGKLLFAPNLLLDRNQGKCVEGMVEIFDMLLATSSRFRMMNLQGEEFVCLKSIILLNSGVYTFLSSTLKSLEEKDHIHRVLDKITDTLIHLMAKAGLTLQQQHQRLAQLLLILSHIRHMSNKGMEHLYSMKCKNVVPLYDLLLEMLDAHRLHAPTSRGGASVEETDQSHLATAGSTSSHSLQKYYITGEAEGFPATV

The target of assay [5] is Histamine H2 receptor (Homo sapiens, UniProt P25021). It is filed as functional, cell-based.
Chain of Histamine H2 receptor (P25021 whole entry): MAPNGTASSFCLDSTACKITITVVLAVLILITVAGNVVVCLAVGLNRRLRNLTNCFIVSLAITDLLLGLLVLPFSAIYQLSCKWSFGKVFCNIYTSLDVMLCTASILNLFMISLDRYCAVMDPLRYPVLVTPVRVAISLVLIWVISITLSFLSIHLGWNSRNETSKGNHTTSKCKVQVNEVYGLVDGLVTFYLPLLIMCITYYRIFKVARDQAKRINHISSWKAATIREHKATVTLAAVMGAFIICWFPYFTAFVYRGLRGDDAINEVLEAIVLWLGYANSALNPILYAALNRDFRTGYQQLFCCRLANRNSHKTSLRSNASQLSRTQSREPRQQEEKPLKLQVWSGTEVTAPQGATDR
For assay [6], the target named is Delta-type opioid receptor (Homo sapiens, UniProt P41143).
Chain of Delta-type opioid receptor (P41143 whole entry): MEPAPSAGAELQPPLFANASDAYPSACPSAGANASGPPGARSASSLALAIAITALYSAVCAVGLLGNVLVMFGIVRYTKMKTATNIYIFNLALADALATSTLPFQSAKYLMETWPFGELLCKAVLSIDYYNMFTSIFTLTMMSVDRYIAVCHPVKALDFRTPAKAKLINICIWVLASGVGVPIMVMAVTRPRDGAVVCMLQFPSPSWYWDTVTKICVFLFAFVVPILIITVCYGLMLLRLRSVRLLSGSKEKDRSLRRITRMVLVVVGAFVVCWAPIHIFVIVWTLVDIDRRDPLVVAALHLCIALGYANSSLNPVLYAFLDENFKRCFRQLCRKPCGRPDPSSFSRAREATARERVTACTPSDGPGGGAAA
For assay [7], the target named is Kappa-type opioid receptor (Homo sapiens, UniProt P41145).
Chain of Kappa-type opioid receptor (P41145 whole entry): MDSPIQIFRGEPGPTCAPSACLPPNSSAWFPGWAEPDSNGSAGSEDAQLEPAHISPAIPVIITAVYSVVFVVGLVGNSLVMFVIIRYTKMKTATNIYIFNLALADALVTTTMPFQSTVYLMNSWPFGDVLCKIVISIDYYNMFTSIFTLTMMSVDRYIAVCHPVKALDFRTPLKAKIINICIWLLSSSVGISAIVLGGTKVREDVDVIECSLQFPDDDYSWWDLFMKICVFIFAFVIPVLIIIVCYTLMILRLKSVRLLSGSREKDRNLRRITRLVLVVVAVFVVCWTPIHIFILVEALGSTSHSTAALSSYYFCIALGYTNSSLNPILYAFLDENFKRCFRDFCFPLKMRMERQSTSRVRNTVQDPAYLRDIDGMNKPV
In assay [8] the target is Sodium-dependent serotonin transporter (Homo sapiens, UniProt P31645).
Chain of Sodium-dependent serotonin transporter (P31645 whole entry): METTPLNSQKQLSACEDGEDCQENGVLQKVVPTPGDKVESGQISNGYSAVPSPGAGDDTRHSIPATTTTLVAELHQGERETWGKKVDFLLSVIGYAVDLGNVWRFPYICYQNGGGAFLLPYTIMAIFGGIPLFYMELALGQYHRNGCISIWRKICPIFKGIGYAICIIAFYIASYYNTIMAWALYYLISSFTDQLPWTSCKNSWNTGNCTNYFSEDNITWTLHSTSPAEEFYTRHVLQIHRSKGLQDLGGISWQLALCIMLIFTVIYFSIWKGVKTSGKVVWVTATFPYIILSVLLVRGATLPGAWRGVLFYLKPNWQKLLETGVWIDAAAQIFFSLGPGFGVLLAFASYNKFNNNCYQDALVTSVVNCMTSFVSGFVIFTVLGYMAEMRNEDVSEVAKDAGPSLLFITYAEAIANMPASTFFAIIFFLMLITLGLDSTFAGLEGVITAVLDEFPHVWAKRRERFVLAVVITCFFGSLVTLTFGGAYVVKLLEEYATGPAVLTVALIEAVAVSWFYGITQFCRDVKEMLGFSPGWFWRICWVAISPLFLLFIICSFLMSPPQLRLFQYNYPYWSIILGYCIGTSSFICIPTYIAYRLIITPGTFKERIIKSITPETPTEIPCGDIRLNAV
The target in assay [9] is Histamine H3 receptor (Homo sapiens, UniProt Q9Y5N1).
Chain of Histamine H3 receptor (Q9Y5N1 whole entry): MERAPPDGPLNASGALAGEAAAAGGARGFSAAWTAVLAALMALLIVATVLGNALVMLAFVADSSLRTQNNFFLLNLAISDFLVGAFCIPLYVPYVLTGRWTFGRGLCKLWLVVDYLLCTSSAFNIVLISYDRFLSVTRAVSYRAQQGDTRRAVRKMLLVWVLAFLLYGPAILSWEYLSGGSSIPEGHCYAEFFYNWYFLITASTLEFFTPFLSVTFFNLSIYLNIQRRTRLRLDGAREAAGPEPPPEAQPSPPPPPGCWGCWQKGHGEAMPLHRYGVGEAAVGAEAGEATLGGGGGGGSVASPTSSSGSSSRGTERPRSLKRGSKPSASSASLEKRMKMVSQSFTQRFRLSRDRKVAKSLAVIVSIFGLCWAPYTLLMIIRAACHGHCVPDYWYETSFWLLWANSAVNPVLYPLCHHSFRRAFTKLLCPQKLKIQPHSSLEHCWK
The target in assay [10] is T4, Progesterone receptor (Homo sapiens, UniProt P06401).
T4 sequence (P06401 whole entry): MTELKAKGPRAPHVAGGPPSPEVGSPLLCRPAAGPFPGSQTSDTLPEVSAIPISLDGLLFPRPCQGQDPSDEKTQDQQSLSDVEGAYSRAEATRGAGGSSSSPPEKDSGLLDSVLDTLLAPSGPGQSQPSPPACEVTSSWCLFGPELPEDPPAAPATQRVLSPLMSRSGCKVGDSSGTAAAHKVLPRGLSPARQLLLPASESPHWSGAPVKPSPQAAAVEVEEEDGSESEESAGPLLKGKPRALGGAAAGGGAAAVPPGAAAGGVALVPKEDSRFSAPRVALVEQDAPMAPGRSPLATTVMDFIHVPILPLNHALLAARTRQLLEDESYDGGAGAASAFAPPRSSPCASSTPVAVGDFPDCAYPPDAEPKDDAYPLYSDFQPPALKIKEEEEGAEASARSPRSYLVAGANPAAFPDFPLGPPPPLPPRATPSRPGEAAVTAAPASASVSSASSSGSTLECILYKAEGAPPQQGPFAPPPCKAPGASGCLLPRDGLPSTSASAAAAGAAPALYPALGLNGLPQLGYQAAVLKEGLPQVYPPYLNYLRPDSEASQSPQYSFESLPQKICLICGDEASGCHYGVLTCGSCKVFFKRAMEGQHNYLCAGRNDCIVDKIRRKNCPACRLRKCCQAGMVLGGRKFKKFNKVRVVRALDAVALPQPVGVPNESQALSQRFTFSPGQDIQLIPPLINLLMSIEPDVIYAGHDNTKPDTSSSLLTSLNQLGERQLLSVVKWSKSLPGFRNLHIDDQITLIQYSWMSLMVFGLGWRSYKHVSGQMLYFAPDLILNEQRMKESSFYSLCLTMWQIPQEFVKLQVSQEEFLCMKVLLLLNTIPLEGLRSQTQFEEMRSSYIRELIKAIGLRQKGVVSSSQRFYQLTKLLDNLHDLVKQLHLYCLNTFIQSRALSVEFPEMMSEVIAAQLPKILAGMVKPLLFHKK
It is filed as functional.

Each structure is given as a SMILES string.
Further: assay procedure not described here.

In the case of `CC(C)(N)Cc1ccccc1` [PHENTERMINE], the concentration at half-maximal activity (AC50) in assay [1] is above 30 µM; in [2], above 30 µM; in assay [3] it was above 30 µM; in assay [4], above 30 µM; in assay [5], above 10 µM; in assay [6], above 30 µM. Further, the values for the AC50 in assay [7], in assay [8] and in assay [9] were above 10 µM, above 30 µM and above 10 µM, respectively.

Turning to `CCN(CC)C(C)C(=O)c1ccccc1` (stereo unspecified) [DIETHYLPROPION], the concentration at half-maximal activity (AC50) in assay [1] was above 30 µM; in assay [2] it was above 30 µM; in assay [3], above 30 µM; in [4], above 30 µM; in [5], above 10 µM; in [6], above 30 µM. Besides, the AC50 was above 10 µM in [7], above 30 µM in assay [8] and above 10 µM in assay [9].

For `COc1ccc2c3c1O[C@H]1C(=O)CC[C@H]4[C@@H](C2)N(C)CC[C@]314` [HYDROCODONE], the AC50 in assay [1] is above 30 µM; in [2], above 30 µM; in assay [3], above 10 µM; in assay [4] it was above 30 µM; in [5], above 10 µM; in assay [8], above 10 µM. The AC50 in [9] is above 10 µM.

Take `CC(=O)OCC1=C(C(=O)O)N2C(=O)[C@@H](NC(=O)Cc3cccs3)[C@H]2SC1` [CEPHALOTHIN]: the AC50 in assay [1], in assay [2], in assay [3], in assay [5], in assay [6] and in assay [7] was above 30 µM in each case. For the same molecule, the AC50 in [10], in [8] and in [9] was above 30 µM in each case.

In the case of `O=C(O[C@H]1C[N+]2(CCCOc3ccccc3)CCC1CC2)C(O)(c1cccs1)c1cccs1` [ACLIDINIUM BROMIDE], the AC50 in assay [1] is above 30 µM; in [2], above 30 µM; in assay [4], above 30 µM; in [6] it was above 30 µM; in [7], 13.9 µM; in assay [8], above 10 µM. Moreover, the AC50 in [9] is above 10 µM.

As to `CN1C(=O)CN=C(c2ccccc2F)c2cc([N+](=O)[O-])ccc21` [FLUNITRAZEPAM], the AC50 in assay [1] was above 30 µM; in assay [3], above 30 µM; in assay [4], above 30 µM; in assay [5], above 10 µM; in [6] it was above 10 µM; in assay [7], 6.39 µM. For the same molecule, the AC50 in assay [8] and in assay [9] was above 10 µM throughout.

Take `CN1CCCN=C1/C=C/c1cccc(O)c1` [OXANTEL]: the half-maximal activity concentration (AC50) in assay [1] is 22 µM; in [2], above 30 µM; in assay [3], above 30 µM; in assay [5] it was above 30 µM; in assay [6], above 30 µM; in [7], 20 µM. For the same molecule, the AC50 in assay [10], in assay [8] and in assay [9] was above 30 µM each time.

As to `Cc1ccc(-c2ncc(Cl)cc2-c2ccc(S(C)(=O)=O)cc2)cn1` [ETORICOXIB], the AC50 was above 10 µM in [1]; above 10 µM in assay [2]; above 10 µM in [3]; above 30 µM in [4]; above 10 µM in assay [5]; above 10 µM in [6]. Also, the half-maximal activity concentration (AC50) in [7], in [8] and in assay [9] was above 10 µM each time.

Consider `Oc1cc(O)c2c(c1)O[C@H](c1ccc(O)c(O)c1)[C@@H](O)C2` [CIANIDANOL], for which the AC50 in assay [1] is 22.2 µM; in [2] it was above 30 µM; in [3] it was above 30 µM; in assay [4], above 30 µM; in assay [5], above 10 µM; in assay [6], above 30 µM. In addition, the values for the AC50 in [7], in assay [8] and in assay [9] were above 10 µM, above 30 µM and above 10 µM, respectively.

Turning to `COC(=O)c1ccc2c(c1)NC(=O)/C2=C(\Nc1ccc(N(C)C(=O)CN2CCN(C)CC2)cc1)c1ccccc1` [NINTEDANIB], the AC50 in [1], in [2], in assay [3], in [5], in assay [6] and in assay [7] was above 30 µM throughout. Moreover, the AC50 in [10], in assay [8] and in assay [9] was above 30 µM throughout.

Regarding `CCCCCCOC(=O)NC(=N)c1ccc(NCc2nc3cc(C(=O)N(CCC(=O)OCC)c4ccccn4)ccc3n2C)cc1` [DABIGATRAN ETEXILATE], the half-maximal activity concentration (AC50) in [1] is 11 µM; in [2], above 30 µM; in assay [3], above 30 µM; in [5], above 30 µM; in assay [6], above 30 µM; in assay [7] it was above 30 µM. Moreover, the AC50 in [10], in assay [8] and in assay [9] was above 30 µM each time.

Consider `CCC(NC(C)C)C(O)c1ccc(O)c(O)c1` (stereo unspecified) [ISOETHARINE], for which the half-maximal activity concentration (AC50) in [1] was above 30 µM; in [2], above 30 µM; in assay [3], above 30 µM; in assay [5], above 30 µM; in assay [6], above 30 µM; in [7], 8.95 µM. Moreover, the AC50 in [10], in assay [8] and in assay [9] was above 30 µM in each case.

On to `CO/N=C(\C(=O)N[C@@H]1C(=O)N2C(C(=O)[O-])=C(C[n+]3ccc(N)n3CCO)CS[C@H]12)c1csc(N)n1` [CEFOSELIS], for which the half-maximal activity concentration (AC50) in [1], in assay [2], in [3], in [5], in assay [6] and in assay [7] was above 30 µM throughout. In addition, the AC50 in [10], in assay [8] and in assay [9] was above 30 µM each time.

Take `COc1cc(N)cn[n+]1-c1ccccc1` [AMEZINIUM METILSULFATE]: the AC50 in [1], in assay [2], in assay [3], in assay [5], in assay [6] and in [7] was above 30 µM each time. For the same molecule, the AC50 in assay [10] is above 30 µM; in assay [8] it was 17 µM; in [9], above 30 µM.

What is called AC50 is the concentration at which the activity in the assay is half-maximal.
